Test results published in the NIST ThermoML archive (doi:10.1016/j.jct.2017.08.035).

Assay: wn = mass fraction of the nth substance listed
Conditions: for surface tension liquid-gas: Maximal bubble pressure; for mass density: 100 kPa, Liquid, Vibrating tube method

CCn1cc[n+](CCOC)c1.O=S(=O)([O-])C(F)(F)F + O
Conditions | mass density, w2 = 0.00185 [kg/m3] | mass density, w2 = 0.0038 [kg/m3] | mass density, w2 = 0.00537 [kg/m3] | mass density, w2 = 0.00665 [kg/m3] | mass density, w2 = 0.00891 [kg/m3] | surface tension liquid-gas, w2 = 0.0016 [mN/m] | surface tension liquid-gas, w2 = 0.00284 [mN/m] | surface tension liquid-gas, w2 = 0.00419 [mN/m] | surface tension liquid-gas, w2 = 0.0056 [mN/m] | surface tension liquid-gas, w2 = 0.007 [mN/m]
298.15 K | 1355.32 | 1354.72 | 1354.29 | 1353.79 | 1353.19 | 38.2 | 38.4 | 38.6 | 38.8 | 39
303.15 K | 1351.04 | 1350.44 | 1350 | 1349.52 | 1348.89 | 37.9 | 38.1 | 38.3 | 38.4 | 38.6
308.15 K | 1346.78 | 1346.18 | 1345.72 | 1345.26 | 1344.62 | 37.6 | 37.8 | 37.9 | 38.1 | 38.3
313.15 K | 1342.54 | 1341.93 | 1341.46 | 1341.03 | 1340.36 | 37.3 | 37.5 | 37.7 | 37.9 | 38.1
318.15 K | 1338.31 | 1337.7 | 1337.22 | 1336.82 | 1336.12 | 37.1 | 37.3 | 37.5 | 37.7 | 37.9
323.15 K | 1334.1 | 1333.49 | 1333 | 1332.62 | 1331.9 | 36.8 | 37 | 37.2 | 37.5 | 37.7
328.15 K | 1329.9 | 1329.3 | 1328.79 | 1328.44 | 1327.7 | 36.5 | 36.7 | 36.9 | 37.1 | 37.3
333.15 K | 1325.72 | 1325.11 | 1324.6 | 1324.26 | 1323.51 | 36.3 | 36.5 | 36.7 | 36.9 | 37.1
338.15 K | 1321.54 | 1320.94 | 1320.43 | 1320.1 | 1319.34 | 36 | 36.2 | 36.3 | 36.5 | 36.7

CC(=O)[O-].CCn1cc[n+](CCOC)c1 [1-ethyl-3-(2-methoxyethyl)imidazolium acetate] + O
Conditions | mass density, w2 = 0.00822 [kg/m3] | mass density, w2 = 0.00966 [kg/m3] | mass density, w2 = 0.01112 [kg/m3] | mass density, w2 = 0.01254 [kg/m3] | mass density, w2 = 0.01399 [kg/m3] | surface tension liquid-gas, w2 = 0.00188 [mN/m] | surface tension liquid-gas, w2 = 0.0034 [mN/m] | surface tension liquid-gas, w2 = 0.00488 [mN/m] | surface tension liquid-gas, w2 = 0.00638 [mN/m] | surface tension liquid-gas, w2 = 0.00792 [mN/m]
298.15 K | 1193.01 | 1193.1 | 1193.21 | 1193.32 | 1193.44 | 46.3 | 46.5 | 46.7 | 47 | 47.3
303.15 K | 1189.68 | 1189.78 | 1189.89 | 1189.98 | 1190.11 | 46 | 46.2 | 46.4 | 46.7 | 47
308.15 K | 1186.36 | 1186.45 | 1186.56 | 1186.66 | 1186.79 | 45.7 | 45.9 | 46.2 | 46.4 | 46.7
313.15 K | 1183.05 | 1183.14 | 1183.25 | 1183.35 | 1183.48 | 45.4 | 45.7 | 45.9 | 46.1 | 46.4
318.15 K | 1179.76 | 1179.85 | 1179.96 | 1180.06 | 1180.19 | 45.1 | 45.3 | 45.6 | 45.8 | 46.1
323.15 K | 1176.48 | 1176.57 | 1176.68 | 1176.78 | 1176.91 | 44.8 | 45.1 | 45.3 | 45.5 | 45.8
328.15 K | 1173.21 | 1173.31 | 1173.42 | 1173.52 | 1173.65 | 44.6 | 44.9 | 45.1 | 45.3 | 45.6
333.15 K | 1169.97 | 1170.06 | 1170.17 | 1170.27 | 1170.4 | 44.4 | 44.7 | 44.8 | 45.1 | 45.3
338.15 K | 1166.74 | 1166.82 | 1166.93 | 1167.03 | 1167.16 | 44.2 | 44.5 | 44.6 | 44.9 | 45.1

CCn1cc[n+](CCOC)c1.N#C[N-]C#N [1-ethyl-3-(2-methoxyethyl)imidazolium dicyanamide] + O
Conditions | mass density, w2 = 0.00148 [kg/m3] | mass density, w2 = 0.00277 [kg/m3] | mass density, w2 = 0.00434 [kg/m3] | mass density, w2 = 0.0055 [kg/m3] | mass density, w2 = 0.00719 [kg/m3] | surface tension liquid-gas, w2 = 0.00031 [mN/m] | surface tension liquid-gas, w2 = 0.00175 [mN/m] | surface tension liquid-gas, w2 = 0.00317 [mN/m] | surface tension liquid-gas, w2 = 0.00461 [mN/m] | surface tension liquid-gas, w2 = 0.00609 [mN/m]
298.15 K | 1113.35 | 1113.18 | 1112.96 | 1112.77 | 1112.46 | 44.7 | 44.9 | 45.3 | 45.6 | 45.9
303.15 K | 1109.96 | 1109.78 | 1109.57 | 1109.37 | 1109.06 | 44.4 | 44.7 | 45 | 45.3 | 45.6
308.15 K | 1106.58 | 1106.41 | 1106.19 | 1106 | 1105.69 | 44.1 | 44.4 | 44.7 | 45 | 45.3
313.15 K | 1103.23 | 1103.05 | 1102.83 | 1102.64 | 1102.33 | 43.8 | 44.1 | 44.4 | 44.7 | 45
318.15 K | 1099.89 | 1099.72 | 1099.5 | 1099.3 | 1098.99 | 43.5 | 43.8 | 44.1 | 44.4 | 44.7
323.15 K | 1096.58 | 1096.4 | 1096.18 | 1095.98 | 1095.66 | 43.2 | 43.5 | 43.8 | 44.2 | 44.4
328.15 K | 1093.27 | 1093.1 | 1092.88 | 1092.68 | 1092.36 | 43 | 43.3 | 43.6 | 44 | 44.2
333.15 K | 1090 | 1089.82 | 1089.59 | 1089.4 | 1089.08 | 42.7 | 43.1 | 43.4 | 43.7 | 44
338.15 K | 1086.74 | 1086.56 | 1086.33 | 1086.13 | 1085.81 | 42.4 | 42.8 | 43.1 | 43.4 | 43.7

CCn1cc[n+](CCOC)c1.N#C[S-] [1-ethyl-3-(2-methoxyethyl)imidazolium thiocyanate] + O
Conditions | mass density, w2 = 0.00246 [kg/m3] | mass density, w2 = 0.00426 [kg/m3] | mass density, w2 = 0.00608 [kg/m3] | mass density, w2 = 0.00832 [kg/m3] | mass density, w2 = 0.00975 [kg/m3] | surface tension liquid-gas, w2 = 0.00382 [mN/m] | surface tension liquid-gas, w2 = 0.00528 [mN/m] | surface tension liquid-gas, w2 = 0.00668 [mN/m] | surface tension liquid-gas, w2 = 0.00811 [mN/m] | surface tension liquid-gas, w2 = 0.00956 [mN/m]
298.15 K | 1121.78 | 1121.54 | 1121.29 | 1120.96 | 1120.82 | 49.3 | 49.4 | 49.5 | 49.6 | 49.7
303.15 K | 1118.56 | 1118.32 | 1118.08 | 1117.75 | 1117.6 | 49 | 49.1 | 49.2 | 49.3 | 49.4
308.15 K | 1115.36 | 1115.12 | 1114.88 | 1114.54 | 1114.4 | 48.7 | 48.8 | 48.9 | 49 | 49.1
313.15 K | 1112.18 | 1111.94 | 1111.7 | 1111.35 | 1111.21 | 48.4 | 48.5 | 48.6 | 48.8 | 48.9
318.15 K | 1109.03 | 1108.77 | 1108.54 | 1108.18 | 1108.03 | 48.1 | 48.2 | 48.3 | 48.5 | 48.6
323.15 K | 1105.88 | 1105.63 | 1105.39 | 1105.02 | 1104.87 | 47.8 | 47.9 | 48 | 48.1 | 48.2
328.15 K | 1102.76 | 1102.5 | 1102.25 | 1101.87 | 1101.72 | 47.6 | 47.7 | 47.8 | 47.9 | 48
333.15 K | 1099.65 | 1099.38 | 1099.13 | 1098.74 | 1098.59 | 47.4 | 47.5 | 47.6 | 47.7 | 47.8
338.15 K | 1096.55 | 1096.28 | 1096.02 | 1095.62 | 1095.47 | 47.1 | 47.2 | 47.3 | 47.5 | 47.6
